# Columns and labels:
# Assay type in all cases: cell-based, human
# [1] = test system: DLD-1 colon cancer cells; assay: Fluorescence enhancement in DLD-1 cells by separate administration of fluorescent dye (ALA) and particles, fluorescence microscope; conditions: Example 6, ALA 2 mmol/l, particles 0.001 w/v %, immediately after observation light irradiation
# Method: DLD-1 cells (DLD-1, JCRB9094) were prepared. This cell line was subcultured in an RPMI-1640 medium (RPMI-1640 medium (Life Technologies), 10 v/v % FBS (Life Technologies)). The cultured cells which reached a logarithmic growth phase 3 days or 4 days later were peeled off with Trypsin/EDTA (Thermo Fisher Scientific) and, after the reaction was terminated in an RPMI-1640 medium, centrifuged. The cell pellet obtained was suspended in an RPMI-1640 medium. The cell suspension was subjected to measurement of cell density, inoculated onto a 6-well plate at a density of 2.9×10^5 cells/2 ml/well, and cultured for 1 day.
# An aqueous ALA solution (50 mmol/l) was mixed into an RPMI-1640 medium (Life Technologies) to form a 2 mmol/l ALA solution. […]
# Evaluation was performed as follows. The medium of the DLD-1 cells on a 6-well plate, obtained in Example 3, was removed by an aspirator, and evaluation thereof was performed under conditions where PBS (−) and HBSS (−) in Example 4 were changed to RPMI-1640 medium and RPMI-1640 medium (no glutamine and no phenol red (Thermo Fisher Scientific), respectively, and the solution was used for detection of fluorescence.
# Detection of fluorescence was performed in the same manner as in Example 5 by using an inverted fluorescence microscope and, from the acquired images, fluorescence intensities were obtained and relative fluorescence intensities were calculated.
# [2] = test system: T24 urinary bladder cancer cells; assay: Fluorescence enhancement in T24 cells by simultaneous administration of fluorescent dye (ALA) and particles; conditions: Example 8, administration of fluorescent dye only, immediately after observation light irradiation
# Method: An aqueous ALA solution (50 mmol/l) was mixed into an MEM medium (MEM, GlutaMAX™ supplement (Thermo Fisher Scientific)) to form a 4 mmol/l ALA solution. Further, an aqueous solution of light scattering particles (2) (ii) was mixed into an MEM medium to form light scattering particle solutions of 0.001, 0.002, and 0.02 w/v %.
# Evaluation was performed as follows. The medium of the T24 cells on a 6-well plate, obtained in Example 3, was removed by an aspirator, and thereto was added 2 ml of PBS (−) (Thermo Fisher Scientific). Once again, PBS (−) was removed by an aspirator, thereto was added 2 ml of a mixed solution obtained by mixing 1 ml of the ALA solution and 1 ml of the light scattering particle solution, and the system was cultured under conditions of 3TC and 5 v/v % CO2 for 2 hours. Then, the mixed solution of the cells on the 6-well plate was removed by an aspirator, thereto was added 2 ml of HBSS (−) (Thermo Fisher Scientific) to wash the residue, HBSS (−) was removed again by an aspirator, to the residue was added 2 ml of HBSS (−), and the solution was used for detection.
# Detection of fluorescence was performed in the same manner as in Example 4 by using an inverted fluorescence microscope and, from the images acquired, fluorescence intensities were obtained and relative fluorescence intensities were calculated.
# [3] = test system: T24 urinary bladder cancer cells; assay: Co-culture in the same visual field, fluorescence of T24 cell region; conditions: Example 11, T24 cell line, ALA 2 mmol/l, particles 0.001 w/v %
# Text: (§1) Co-culture pertaining to the present example for having the tumor cells and the immortalized normal cells exist in the same visual field will be described with reference to FIGS. 1A and 1B. For the co-culture, there was used CytoSelect™ 24-Well Cell Co-Culture System (manufactured by COSMO BIO). The T24 cell line was subcultured in an MEM medium (MEM, GlutaMAX™ supplement (Thermo Fisher Scientific), 10 v/v % FBS (Thermo Fisher Scientific)). The cultured cells which reached a logarithmic growth phase 3 days or 4 days later were peeled off with Trypsin/EDTA (Thermo Fisher Scientific) and, after the reaction was terminated in an MEM medium, centrifuged. The cell pellet obtained was suspended in an MEM medium. The cell suspension was subjected to measurement of cell density and inoculated onto a well at a density of 4.4×10^4 cells/0.225 ml/well, the well having an insert 2 of an 8 mm diameter disposed for preparing a cell-free region therein, and cultured for 2 days to form a monolayer in region 3 around the insert 2.
# (§2) WI-38 cells were subcultured in an MEM medium. […]
# (§3) Detection of fluorescence was performed in the same manner as in Example 4 by using an inverted fluorescence microscope (ECLIPSE Ti-E, Nikon). Images having a visual field of 3300 μm (width)×2200 μm (length) were obtained, and relative fluorescence intensities were calculated in the same manner as in Example 5.
# [4] = test system: WI-38 immortalized normal cells; assay: Co-culture in the same visual field, fluorescence of WI-38 cell region; conditions: Example 11, WI-38 cell line, ALA 2 mmol/l, particles 0.001 w/v %
# Text: as §1, §2, §3
smiles,measurement,setting,value
"NCC(=O)CCC(=O)O [fluorescent dye, 5-aminolevulinic acid]",Relative fluorescence intensity,[1],1.0
same,Relative fluorescence intensity,[2],1.0
same,Relative fluorescence intensity,[3],1.6
same,Relative fluorescence intensity,[4],1.0
